Test results: PMC12649549, “Sequence Permutation Generated Lysine and Tryptophan-Rich Antimicrobial Peptides with Enhanced Therapeutic Index” (Antibiotics, 2025)
Where two headings read alike, the source gives them in different places.

What was measured:
[1] = system: A. baumannii 14B00100 (Acinetobacter sp., BCRC number 14B0100)
In short: (§1)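 MICs came from CLSI broth microdilution, with 5 × 10^5 CFU/mL bacteria exposed to peptide at final 0.78–50 µg/mL. Media were MH broth or LYM broth (pH 7.4), the latter also adjusted for salt (NaCl 50–300 mM, MgCl2 0.5–2.5 mM) or acidity (pH 4.5–6.5); triplicate independent experiments.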

[2] = system: A. baumannii 14B0091 (Acinetobacter sp., BCRC number 14B0091)
In short: as §1

[3] = system: A. baumannii 14B0097 (Acinetobacter sp., BCRC number 14B0097)
In short: as §1

[4] = system: Escherichia coli (ATCC 25922)
In short: as §1

[5] = system: S. aureus ATCC 25923
In short: as §1

[6] = system: S. aureus ATCC 33591
In short: as §1

[7] = system: S. aureus ATCC 33593
In short: as §1

[8] = system: S. aureus ATCC 6538
In short: as §1

[9] = LYM broth, 0 mM NaCl, 16 h, 37 °C
[10] = LYM broth, 50 mM NaCl, 16 h, 37 °C
[11] = LYM broth, 100 mM NaCl, 16 h, 37 °C
[12] = LYM broth, 200 mM (NaCl), 16 h, 37 °C
[13] = LYM broth, 300 mM (NaCl), 16 h, 37 °C
[14] = MH broth, 5 × 10^5 CFU/mL, 16 h, 37 °C, repeated three times

Measured: MIC

Ac-WLAKKKKWRKWLK-NH2 [Peptide W5K08]
1.56 µg/mL: [5]; [9] | [5]; LYM broth, pH 6.5
25 µg/mL: [1]; [11] | [2]; [11] | [3]; [14] | [5]; [14] | [6]; [9] | [6]; LYM broth, 0.5 mM MgCl2 | [6]; LYM broth, pH 4.5 | [6]; LYM broth, pH 5.5 | [7]; [9] | [7]; LYM broth, 0.5 mM MgCl2 | [7]; LYM broth, 1.5 mM MgCl2 | [7]; LYM broth, pH 4.5 | [8]; [10]
>50 µg/mL: [1]; [12] | [1]; [13] | [1]; [14] | [2]; [12] | [2]; [13] | [2]; [14] | [3]; [13] | [4]; [13] | [5]; [13] | [6]; [13] | [6]; [14] | [7]; [12] | [7]; [13] | [7]; [14] | [8]; [13] | [8]; [14]
6.25 µg/mL: [1]; LYM broth, 2.5 mM MgCl2 | [1]; [10] | [2]; LYM broth, 2.5 mM MgCl2 | [2]; [10] | [2]; LYM broth, pH 4.5 | [3]; LYM broth, 2.5 mM MgCl2 | [3]; [10] | [3]; LYM broth, pH 4.5 | [4]; LYM broth, 0.5 mM MgCl2 | [4]; LYM broth, 1.5 mM MgCl2 | [4]; LYM broth, 2.5 mM MgCl2 | [5]; LYM broth, 1.5 mM MgCl2 | [5]; LYM broth, 2.5 mM MgCl2 | [8]; LYM broth, 1.5 mM MgCl2 | [8]; LYM broth, 2.5 mM MgCl2 | [8]; LYM broth, pH 5.5 | [8]; LYM broth, pH 6.5
50 µg/mL: [3]; [12] | [4]; [12] | [4]; [14] | [5]; [12] | [6]; LYM broth, 1.5 mM MgCl2 | [6]; LYM broth, 2.5 mM MgCl2 | [6]; [10] | [6]; [11] | [6]; [12] | [7]; LYM broth, 2.5 mM MgCl2 | [7]; [10] | [7]; [11] | [8]; [11] | [8]; [12]
3.13 µg/mL: [1]; [9] | [1]; LYM broth, 0.5 mM MgCl2 | [1]; LYM broth, 1.5 mM MgCl2 | [1]; LYM broth, pH 4.5 | [1]; LYM broth, pH 5.5 | [1]; LYM broth, pH 6.5 | [2]; [9] | [2]; LYM broth, 0.5 mM MgCl2 | [2]; LYM broth, 1.5 mM MgCl2 | [2]; LYM broth, pH 5.5 | [2]; LYM broth, pH 6.5 | [3]; [9] | [3]; LYM broth, 0.5 mM MgCl2 | [3]; LYM broth, 1.5 mM MgCl2 | [3]; LYM broth, pH 5.5 | [3]; LYM broth, pH 6.5 | [4]; [9] | [4]; LYM broth, pH 4.5 | [4]; LYM broth, pH 5.5 | [4]; LYM broth, pH 6.5 | [5]; LYM broth, 0.5 mM MgCl2 | [5]; [10] | [5]; LYM broth, pH 4.5 | [5]; LYM broth, pH 5.5 | [8]; LYM broth, 0.5 mM MgCl2
12.5 µg/mL: [3]; [11] | [4]; [10] | [4]; [11] | [5]; [11] | [6]; LYM broth, pH 6.5 | [7]; LYM broth, pH 5.5 | [7]; LYM broth, pH 6.5 | [8]; [9] | [8]; LYM broth, pH 4.5

Ac-RKWLKWLAKKKKW-NH2 [Peptide W5K03]
50 µg/mL: [4]; [11] | [4]; [14] | [5]; [14] | [6]; LYM broth, 2.5 mM MgCl2 | [6]; [10] | [6]; [11] | [7]; LYM broth, 2.5 mM MgCl2 | [7]; [11]
3.13 µg/mL: [1]; LYM broth, 0.5 mM MgCl2 | [1]; LYM broth, 1.5 mM MgCl2 | [1]; LYM broth, 2.5 mM MgCl2 | [1]; [10] | [1]; [11] | [2]; LYM broth, 1.5 mM MgCl2 | [2]; LYM broth, 2.5 mM MgCl2 | [2]; [10] | [2]; [11] | [2]; LYM broth, pH 4.5 | [2]; LYM broth, pH 5.5 | [3]; LYM broth, 0.5 mM MgCl2 | [3]; LYM broth, 1.5 mM MgCl2 | [3]; LYM broth, 2.5 mM MgCl2 | [3]; [10] | [3]; [11] | [3]; LYM broth, pH 4.5 | [3]; LYM broth, pH 5.5 | [3]; LYM broth, pH 6.5 | [4]; LYM broth, pH 6.5 | [5]; LYM broth, pH 5.5 | [5]; LYM broth, pH 6.5 | [8]; LYM broth, 0.5 mM MgCl2 | [8]; LYM broth, 1.5 mM MgCl2 | [8]; [10] | [8]; LYM broth, pH 5.5 | [8]; LYM broth, pH 6.5
6.25 µg/mL: [1]; [12] | [2]; [12] | [2]; [14] | [3]; [12] | [3]; [14] | [4]; [9] | [4]; LYM broth, pH 4.5 | [4]; LYM broth, pH 5.5 | [5]; [9] | [5]; LYM broth, 0.5 mM MgCl2 | [5]; LYM broth, pH 4.5 | [8]; LYM broth, 2.5 mM MgCl2 | [8]; [11] | [8]; LYM broth, pH 4.5
25 µg/mL: [2]; [13] | [3]; [13] | [4]; LYM broth, 1.5 mM MgCl2 | [4]; LYM broth, 2.5 mM MgCl2 | [4]; [10] | [5]; [11] | [6]; [9] | [6]; LYM broth, 0.5 mM MgCl2 | [6]; LYM broth, 1.5 mM MgCl2 | [6]; LYM broth, pH 4.5 | [6]; LYM broth, pH 5.5 | [7]; [9] | [7]; LYM broth, 0.5 mM MgCl2 | [7]; LYM broth, 1.5 mM MgCl2 | [7]; [10] | [7]; LYM broth, pH 4.5 | [7]; LYM broth, pH 5.5 | [8]; [13] | [8]; [14]
12.5 µg/mL: [1]; [13] | [1]; [14] | [4]; LYM broth, 0.5 mM MgCl2 | [5]; LYM broth, 1.5 mM MgCl2 | [5]; LYM broth, 2.5 mM MgCl2 | [5]; [10] | [6]; LYM broth, pH 6.5 | [7]; LYM broth, pH 6.5 | [8]; [12]
1.56 µg/mL: [1]; [9] | [1]; LYM broth, pH 4.5 | [1]; LYM broth, pH 5.5 | [1]; LYM broth, pH 6.5 | [2]; [9] | [2]; LYM broth, 0.5 mM MgCl2 | [2]; LYM broth, pH 6.5 | [3]; [9] | [8]; [9]
>50 µg/mL: [4]; [12] | [4]; [13] | [5]; [12] | [5]; [13] | [6]; [12] | [6]; [13] | [6]; [14] | [7]; [12] | [7]; [13] | [7]; [14]
